Test results published in patent US12655116B2, “Substituted isophthalic acid diamides” (Bayer Aktiengesellschaft, priority 2020, dated 2026).

Experiments:
[1] = test system: SETVI; test: Pre-emergence herbicidal action against SETVI; assay type: in vivo, Setaria viridis
In short: (§1)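 Seeds sown in sandy loam, soil-covered; compound sprayed on soil surface pre-emergence. Application: WP/EC, 600–800 l/ha, 0.2% wetting agent. Readout: visual % damage at 3 weeks.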

[2] = test system: ECHCG; test: Post-emergence herbicidal action against ECHCG; assay type: in vivo, Echinochloa crus-galli
In short: (§2)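 Percent herbicidal action is rated by eye about 3 weeks after treatment against untreated controls, where 100% means dead plants and 0% means like controls. Plants in sandy loam are sprayed on green parts at the one-leaf stage with aqueous WP or EC preparations at 600 to 800 l/ha plus 0.2% wetting agent.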

[3] = test system: ECHCG; test: Pre-emergence herbicidal action against ECHCG; assay type: in vivo, Echinochloa crus-galli
In short: as §1

[4] = test system: DIGSA; test: Pre-emergence herbicidal action against DIGSA; assay type: in vivo, Digitaria sanguinalis
In short: as §1

[5] = test system: AMARE; test: Post-emergence herbicidal action against AMARE; assay type: in vivo, Amaranthus retroflexus; settings: 20 g/ha, visual assessment about 3 weeks after treatment, 100% = plants have died, 0% = like control plants
In short: as §2

[6] = test system: PHBPU; test: Pre-emergence herbicidal action against PHBPU; assay type: in vivo, Pharbitis purpurea
Excerpt: Seeds of monocotyledonous and dicotyledonous weed plants and crop plants are laid out in sandy loam soil in wood-fiber pots and covered with soil. The compounds of the invention, formulated in the form of wettable powders (WP) or as emulsion concentrates (EC), are then applied to the surface of the covering soil in the form of an aqueous suspension or emulsion at a water application rate equivalent to 600 to 800 l/ha, with addition of 0.2% wetting agent. After the treatment, the pots are placed in a greenhouse and kept under good growth conditions for the trial plants. The damage to the test plants is scored visually after a test period of 3 weeks by comparison with untreated controls (herbicidal activity in percent (%): 100% activity=the plants have died, 0% activity=like control plants). […] The tables below illustrate, in an illustrative manner, the post-emergence herbicidal action of the compounds of the invention, the herbicidal activity being stated in percent.

[7] = test system: PHBPU; test: Post-emergence herbicidal action against PHBPU; assay type: in vivo, Pharbitis purpurea
In short: as §2

[8] = test system: AMARE; test: Pre-emergence herbicidal action against AMARE; assay type: in vivo, Amaranthus retroflexus
In short: as §1

[9] = test system: VIOTR; test: Pre-emergence herbicidal action against VIOTR; assay type: in vivo, Viola tricolor
In short: as §1

[10] = test system: DIGSA; test: Post-emergence herbicidal action against DIGSA; assay type: in vivo, Digitaria sanguinalis; settings: for Post-emergence action against DIGSA in %: 5 g/ha; for Post-emergence action against DIGSA: 20 g/ha
In short: as §2

[11] = test system: AVEFA; test: Pre-emergence herbicidal action against AVEFA; assay type: in vivo, Avena fatua; settings: 80 g/ha, pre-emergence
In short: as §1

[12] = test system: MATIN; test: Post-emergence herbicidal action against MATIN; assay type: in vivo, Matricaria inodora
In short: as §2

[13] = test system: ABUTH; test: Post-emergence herbicidal action against ABUTH; assay type: in vivo, Abutilon theophrasti; settings: visual assessment about 3 weeks after treatment vs untreated controls
In short: as §2

[14] = test system: SETVI; test: Post-emergence herbicidal action against SETVI; assay type: in vivo, Setaria viridis; settings: dosage 20 g/ha
In short: as §2

[15] = test system: VIOTR; test: Post-emergence herbicidal action against VIOTR; assay type: in vivo, Viola tricolor; settings: 20 g/ha
In short: as §2

[16] = test system: ABUTH; test: Pre-emergence herbicidal action against ABUTH; assay type: in vivo, Abutilon theophrasti; settings: for Pre-emergence action against ABUTH (herbicidal activity): 80 g/ha, scored visually after 3 weeks vs untreated controls (100% = plants have died, 0% = like control plants); for Pre-emergence action against ABUTH (herbicidal activity in percent): dosage 20 g/ha, scored visually after 3 weeks vs untreated controls, 100% = plants have died, 0% = like control plants
In short: as §1

[17] = test system: ALOMY; test: Pre-emergence herbicidal action against ALOMY; assay type: in vivo, Alopecurus myosuroides; settings: for Pre-emergence action against ALOMY (herbicidal activity): 80 g/ha, scored visually after 3 weeks vs untreated controls (100% = plants have died, 0% = like control plants)
In short: as §1

[18] = test system: MATIN; test: Pre-emergence herbicidal action against MATIN; assay type: in vivo, Matricaria inodora
In short: as §1

[19] = test system: ALOMY; test: Post-emergence herbicidal action against ALOMY; assay type: in vivo, Alopecurus myosuroides; settings: dosage 20 g/ha, visual assessment about 3 weeks after treatment vs untreated controls
In short: as §2

[20] = test system: VERPE; test: Pre-emergence herbicidal action against VERPE; assay type: in vivo, Veronica persica
In short: as §1

[21] = 20 g/ha, scored visually after 3 weeks vs untreated controls, 100% = plants have died, 0% = like control plants
[22] = 80 g/ha, scored visually after 3 weeks vs untreated controls (100% = plants have died, 0% = like control plants)

Compound | Pre-emergence action against SETVI in % ([1]; dosage 80 g/ha) | Post-emergence action against ECHCG in % ([2]; dosage 20 g/ha) | Pre-emergence action against ECHCG in % ([3]; 20 g/ha) | Pre-emergence action against ECHCG in % ([3]; 80 g/ha) | Pre-emergence action against DIGSA in % ([4]; dosage 20 g/ha) | Pre-emergence action against DIGSA in % ([4]; dosage 80 g/ha) | Post-emergence action at 20 g/ha against AMARE in % [5] | Pre-emergence action against PHBPU in % ([6]; dosage 20 g/ha) | Pre-emergence action against PHBPU in % ([6]; dosage 80 g/ha) | Post-emergence action against PHBPU in % ([7]; dosage 20 g/ha) | Pre-emergence action against AMARE in % [8, 21] | Pre-emergence action against AMARE in % [8, 22] | Pre-emergence action against VIOTR in % ([9]; dosage 20 g/ha) | Pre-emergence action against VIOTR in % ([9]; dosage 80 g/ha) | Post-emergence action against DIGSA in % [10] | Post-emergence action against DIGSA [10] | Pre-emergence action against AVEFA in % [11] | Post-emergence action against ABUTH in % ([13]; dosage 20 g/ha) | Pre-emergence action against ABUTH (herbicidal activity) [16] | Pre-emergence action against MATIN in % ([18]; dosage 80 g/ha) | further results
CCn1nnnc1NC(=O)c1ccc(C(F)(F)F)c(C(=O)NCC2CC2)c1Br [Example 2-210] | 100% | 90% | 80% | 100% | 100% | 100% | 100% | 80% | 90% | 90% | 100% | 100% | 100% | 100% | 80% | 90% | 90% | 80% | 100% | 100% | Post-emergence action against MATIN in % ([12]; dosage 20 g/ha): 90%; Post-emergence action against ABUTH in % ([13]; dosage 5 g/ha): 80%; Post-emergence action against SETVI in % [14]: 80%; Post-emergence action against VIOTR in % [15]: 90%; Pre-emergence action against ABUTH (herbicidal activity in percent) [16]: 100%; Pre-emergence action against ALOMY (herbicidal activity) [17]: 100%; Pre-emergence action against MATIN in % ([18]; dosage 20 g/ha): 100%; Post-emergence action against ALOMY in % [19]: 90%
CCn1nnnc1NC(=O)c1ccc(C(F)(F)F)c(C(=O)NC(C)C2CC2)c1Br (stereo not drawn) [Example 2-213] | 100% | 80% |  | 90% | 80% | 100% |  | 80% | 90% | 80% | 100% | 100% | 100% | 100% |  | 90% |  | 80% | 100% | 100% | Post-emergence action against ECHCG in % ([2]; dosage 5 g/ha): 80%; Pre-emergence action against VERPE in % ([20]; dosage 80 g/ha): 90%; Post-emergence action against PHBPU in % ([7]; dosage 5 g/ha): 80%; Post-emergence action against MATIN in % ([12]; dosage 5 g/ha): 90%; Post-emergence action against MATIN in % ([12]; dosage 20 g/ha): 100%; Post-emergence action against VIOTR in % [15]: 90%; Pre-emergence action against ABUTH (herbicidal activity in percent) [16]: 100%; Pre-emergence action against MATIN in % ([18]; dosage 20 g/ha): 100%
Cc1nnc(NC(=O)c2ccc(C(F)(F)F)c(C(=O)NC3CCC3)c2C)o1 [Example 6-256] | 100% | 90% | 80% | 100% | 90% | 100% | 90% |  | 80% | 90% | 90% | 100% | 90% | 90% | 80% | 90% | 80% | 90% | 100% | 90% | Pre-emergence action against SETVI in % ([1]; dosage 20 g/ha): 80%; Post-emergence action against ECHCG in % ([2]; dosage 5 g/ha): 90%; Pre-emergence action against VERPE in % ([20]; dosage 20 g/ha): 80%; Pre-emergence action against VERPE in % ([20]; dosage 80 g/ha): 80%; Post-emergence action against ABUTH in % ([13]; dosage 5 g/ha): 80%; Pre-emergence action against ALOMY ([17]; 20 g/ha, scored visually after 3 weeks, 100% = plants have died, 0% = like control plants): 80%; Pre-emergence action against ALOMY (herbicidal activity) [17]: 90%
